Experimental findings from patent publication US20080292580A1, “Treatment of Inflammatory Diseases” (UNIVERSITY COLLEGE LONDON HOSPITALS NHS FOUNDATION, priority 2004, published 2008) are described below.

This series has as its system normal mice. The experiment in a line: Toxic effects of PEG-saline infusion in normal mice. As to conditions: mouse, in vivo. The method, then:
In this example, the toxic effects of high molecular weight polyethylene glycol at high concentrations were compared to the effects of low molecular weight polyethylene glycol at even higher concentrations.
Normal mice, which were not subjected to zymozan or lipopolysaccharide injections, were infused (25 ml/kg) with either PEG-200-saline solution at a PEG-200 concentration of 100 mg/ml or PEG-4000-saline solution at a PEG-4000 concentration of 30 mg/ml.

polyethylene glycol [PEG 200-saline]: the “survival of normal mice” value is “survived”.
